Data as given in patent publication US20230286960A1, “ALLOSTERIC CHROMENONE INHIBITORS OF PHOSPHOINOSITIDE 3-KINASE (PI3K) FOR THE TREATMENT OF DISEASE” (Petra Pharma Corporation, priority 2020, published 2023).

Legend:
[1] = target: human full length PIK3CA H1047R mutant (p110α/p85α) (Homo sapiens (Human), UniProt P42336, H1047R); assay: PI3K-alpha kinase (PIK3CA) activity, H1047R mutant, Transcreener ADP2 FI assay; conditions: PI3K-α (PIK3CA) biochemical
Description: (§1) PI3K-Alpha Kinase (PIK3CA) Activity, Wild-Type and H1047R Mutant and Determining IC50 Values for Inhibitors
(§2) Recombinant, catalytically active human full length PIK3KA Wild-type and H1047R mutant were purchased as 1:1 complex of N-terminal 6× his tagged p110 ? (catalytic) and untagged p85 ? (regulatory subunit) from EMD Millipore Sigma (cat. no. 14-602M and 14-792M, respectively). The enzyme stocks were diluted to 5× stocks in buffer (20 mM HEPES pH 7.4, 100 mM NaCl, 0.5 mM EGTA, 0.01% triton-x-100) just before use. PIP2diC8 (Avanti Polar Lipids Inc., cat. no. 850185) or phosphoinositol-4,5-bisphosphate with phosphoserine (PIP2:PS) membrane (Thermo Fisher Scientific, cat. no. PV5100) was used as lipid substrates. PIP2diC8 lyophilized powder and PIP2:PS (1:19) membrane stock (1 mM in PIP2) were separately dissolved in milliQ water to a concentration of 250 uM and stored in −20° C. 10 mM stocks of compounds were serially diluted (3×) in neat DMSO and stored in a dessicator at room temperature. 5× compound stocks in 25% DMSO were prepared fresh from neat DMSO stocks.
(§3) Wild-type (WT) and H1047R mutant protein, along with buffer components (except ATP), were incubated with or without compound at 27° C. for 1 h. After incubation, the reaction was initiated by the addition of 5 uL of 125 uM ATP. A typical assay mixture (25 uL) comprised 40 mM HEPES buffer, pH 7.4, 25 mM MgCl2, 0.01% v/v triton-X-100, 5% v/v DMSO, 20 mM NaCl, 1-5 nM wt or H1047R, 25 uM ATP, and 50 uM PIP2diC8 or PIP2 in membrane. The reaction was allowed to proceed until about […] (2.5 uM ADP) after which time, 10 uL of reaction mixture was quenched with 25 uL of transcreener reagent (Transcreener ADP2 FI assay kit, BellBrook labs, Cat. No. 3013). The contents were incubated at rt for 1 h and fluorescence was measured using a plate reader (Paradigm, Molecular Devices). The same assay was also run at pH 6.0 or 6.4 using MOPS buffer (Fisher BioReagents, CAS 1132-61-2). A calibration curve was generated under identical buffer conditions with varying ADP amounts. Using that, the observed fluorescence was converted to uM ADP. A plot between [ADP] and log[I] yielded the dose-response curves that enabled the calculation of IC50s.

[2] = target: human full length PIK3CA wild-type (p110α/p85α) (Homo sapiens (Human), UniProt P42336); assay: PI3K-alpha kinase (PIK3CA) activity, wild-type, Transcreener ADP2 FI assay; conditions: PI3K-α (PIK3CA) biochemical
Description: as §1, §2, §3

Sequence of human full length PIK3CA H1047R mutant (p110α/p85α) (P42336 whole entry H1047R): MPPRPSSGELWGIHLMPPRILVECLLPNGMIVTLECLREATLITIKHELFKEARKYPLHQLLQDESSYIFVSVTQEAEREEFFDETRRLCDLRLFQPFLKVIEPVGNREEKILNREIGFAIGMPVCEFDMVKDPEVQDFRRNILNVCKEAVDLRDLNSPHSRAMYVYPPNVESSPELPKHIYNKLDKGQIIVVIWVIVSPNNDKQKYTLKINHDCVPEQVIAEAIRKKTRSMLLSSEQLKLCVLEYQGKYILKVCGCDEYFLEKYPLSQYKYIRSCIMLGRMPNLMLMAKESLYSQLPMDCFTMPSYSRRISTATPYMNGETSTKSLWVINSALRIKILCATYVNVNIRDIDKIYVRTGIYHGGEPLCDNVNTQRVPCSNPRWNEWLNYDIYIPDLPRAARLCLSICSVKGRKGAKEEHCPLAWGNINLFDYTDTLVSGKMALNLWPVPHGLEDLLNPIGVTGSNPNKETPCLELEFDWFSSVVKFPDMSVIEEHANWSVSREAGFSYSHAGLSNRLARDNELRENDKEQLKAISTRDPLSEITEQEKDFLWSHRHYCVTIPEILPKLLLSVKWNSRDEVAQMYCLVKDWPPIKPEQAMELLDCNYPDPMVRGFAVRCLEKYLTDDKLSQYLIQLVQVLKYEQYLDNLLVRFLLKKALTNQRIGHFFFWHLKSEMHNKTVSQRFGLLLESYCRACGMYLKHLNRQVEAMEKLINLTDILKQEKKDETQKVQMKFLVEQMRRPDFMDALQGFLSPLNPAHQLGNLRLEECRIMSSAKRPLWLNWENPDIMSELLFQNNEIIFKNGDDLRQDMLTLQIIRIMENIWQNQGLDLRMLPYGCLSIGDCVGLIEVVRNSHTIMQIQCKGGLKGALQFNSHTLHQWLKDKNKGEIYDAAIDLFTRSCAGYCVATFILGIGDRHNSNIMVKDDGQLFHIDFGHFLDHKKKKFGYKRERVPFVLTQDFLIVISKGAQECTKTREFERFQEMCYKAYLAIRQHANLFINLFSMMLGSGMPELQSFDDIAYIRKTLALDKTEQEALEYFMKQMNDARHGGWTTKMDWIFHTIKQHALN
Sequence of human full length PIK3CA H1047R mutant (p110α/p85α) (P27986 whole entry partner): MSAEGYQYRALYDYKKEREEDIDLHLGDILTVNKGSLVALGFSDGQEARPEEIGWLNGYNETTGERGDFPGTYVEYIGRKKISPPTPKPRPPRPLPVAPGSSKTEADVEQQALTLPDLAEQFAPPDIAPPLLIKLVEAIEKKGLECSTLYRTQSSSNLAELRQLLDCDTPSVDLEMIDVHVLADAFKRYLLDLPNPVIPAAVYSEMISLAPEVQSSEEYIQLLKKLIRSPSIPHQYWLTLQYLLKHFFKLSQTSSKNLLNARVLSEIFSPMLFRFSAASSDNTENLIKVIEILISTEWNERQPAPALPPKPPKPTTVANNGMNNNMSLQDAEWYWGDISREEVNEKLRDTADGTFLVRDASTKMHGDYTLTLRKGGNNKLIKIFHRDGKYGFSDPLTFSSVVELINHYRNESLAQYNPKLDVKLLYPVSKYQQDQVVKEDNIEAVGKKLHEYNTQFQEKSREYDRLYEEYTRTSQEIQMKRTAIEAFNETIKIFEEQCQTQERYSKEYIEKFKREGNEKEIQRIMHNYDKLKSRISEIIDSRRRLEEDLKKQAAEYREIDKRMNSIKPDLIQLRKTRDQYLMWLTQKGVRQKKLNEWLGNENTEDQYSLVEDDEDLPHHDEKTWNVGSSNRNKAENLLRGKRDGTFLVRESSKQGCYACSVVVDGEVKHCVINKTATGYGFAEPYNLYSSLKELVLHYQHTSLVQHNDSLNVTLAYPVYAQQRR
Sequence of human full length PIK3CA wild-type (p110α/p85α) (P42336 whole entry): as the sequence (P42336 whole entry H1047R) above, with R1047H counted along it
Sequence of human full length PIK3CA wild-type (p110α/p85α) (P27986 whole entry partner): as the sequence (P27986 whole entry partner) above

IC50 [1] [nM]	IC50 [2] [nM]	Compound
< 500	< 500	Cc1cc([C@@H](C)Nc2ccc(Cl)nc2C(=O)O)c2oc(N3CCCCC3)c(C)c(=O)c2c1 [Example 309, 6-Chloro-3-[[(1R)-1-[3,6-dimethyl-4-oxo-2-(1-piperidyl)chromen-8-yl]ethyl]amino]pyridine-2-carboxylic acid]
< 500	< 500	Cc1cc([C@@H](C)Nc2ccc(Cl)nc2C(=O)O)c2oc(N3CCC4(CC3)CC4)c(C)c(=O)c2c1 [Example 306, 3-[[(1R)-1-[2-(6-Azaspiro[2.5]octan-6-yl)-3,6-dimethyl-4-oxo-chromen-8-yl]ethyl]amino]-6-chloro-pyridine-2-carboxylic acid]
< 500	< 500	CC(Nc1ccc(Cl)nc1C(=O)O)c1cc(F)cc2c(=O)cc(N3Cc4ccccc4C3)oc12 (centres unmarked) [Example 400, 6-Chloro-3-[1-(6-fluoro-2-isoindolin-2-yl-4-oxo-chromen-8-yl)ethylamino]pyridine-2-carboxylic acid 2,2,2-trifluoroacetic acid]
< 500	< 500	Cc1cc([C@@H](C)Nc2ccc(Cl)nc2C(=O)O)c2oc(N3Cc4ccc5c(c4C3)OCO5)cc(=O)c2c1 [Example 301, 6-Chloro-3-[[(1R)-1-[2-(6,8-dihydro-[1,3]dioxolo[4,5-e]isoindol-7-yl)-6-methyl-4-oxo-chromen-8-yl]ethyl]amino]pyridine-2-carboxylic acid]
< 500	< 500	Cc1cc([C@@H](C)Nc2ccc(Cl)nc2C(=O)O)c2oc(N3CCC(F)(F)CC3)c(C)c(=O)c2c1 [Example 310, 6-Chloro-3-[[(1R)-1-[2-(4,4-difluoro-1-piperidyl)-3,6-dimethyl-4-oxo-chromen-8-yl]ethyl]amino]pyridine-2-carboxylic acid]
< 500	< 500	Cc1cc([C@@H](C)Nc2ccc(Cl)nc2C(=O)O)c2oc(N3Cc4ccccc4C3)cc(=O)c2c1 [Example 300, 6-Chloro-3-[[(1R)-1-(2-isoindolin-2-yl-6-methyl-4-oxo-chromen-8-yl)ethyl]amino]pyridine-2-carboxylic acid]
< 500	< 500	Cc1cc(C(C)Nc2ccc(Cl)nc2C(=O)O)c2oc(N3CCCCC3)c(C)c(=O)c2c1 (centres unmarked) [Example 305, 6-Chloro-3-[1-[3,6-dimethyl-4-oxo-2-(1-piperidyl)chromen-8-yl]ethylamino]pyridine-2-carboxylic acid]
–	> 10000	Cc1cc(C(C)Nc2ccccc2C(=O)O)c2oc(N3CCC4(CC3)CN(C)C(=O)O4)cc(=O)c2c1 (centres unmarked) [Example 380, 2-[1-[6-Methyl-2-(3-methyl-2-oxo-1-oxa-3,8-diazaspiro[4.5]decan-8-yl)-4-oxo-chromen-8-yl]ethylamino]benzoic acid]
–	> 10000	COC1CCN(c2cc(=O)c3cc(C)cc(C(C)Nc4ccccc4C(=O)O)c3o2)CC1 (centres unmarked) [Example 373, 2-[1-[2-(4-Methoxy-1-piperidyl)-6-methyl-4-oxo-chromen-8-yl]ethylamino]benzoic acid]
< 500	< 500	Cc1cc([C@@H](C)Nc2ccc(Cl)nc2C(=O)O)c2oc(N3Cc4ccc(F)cc4C3)c(C)c(=O)c2c1 [Example 308, 6-Chloro-3-[[(1R)-1-[2-(5-fluoroisoindolin-2-yl)-3,6-dimethyl-4-oxo-chromen-8-yl]ethyl]amino]pyridine-2-carboxylic acid]
> 10000	> 10000	Cc1cc(C(C)Nc2ccc(B(O)O)cc2C(=O)O)c2oc(N3CCC(C)(C)CC3)cc(=O)c2c1 (centres unmarked) [Example 357, 5-Borono-2-[1-[2-(4,4-dimethyl-1-piperidyl)-6-methyl-4-oxo-chromen-8-yl]ethylamino]benzoic acid]
< 500	> 10000	Cc1cc(C(C)Nc2ccccc2C(=O)O)c2oc(N3CCC(C)CC3)cc(=O)c2c1 (centres unmarked) [Example 370, 2-[1-[6-Methyl-2-(4-methyl-1-piperidyl)-4-oxo-chromen-8-yl]ethylamino]benzoic acid]

The remaining lines, values behind:

Compound	IC50 [1] [nM]	IC50 [2] [nM]
Cc1cc(C(C)Nc2cc(F)ccc2[N+](=O)[O-])c2oc(N3CCC(C)(C)CC3)cc(=O)c2c1 (centres unmarked) [Example 8, 2-(4,4-Dimethyl-1-piperidyl)-8-[1-(5-fluoro-2-nitro-anilino)ethyl]-6-methyl-chromen-4-one]	> 10000	> 10000
Cc1cc(C(C)Nc2c(Cl)cccc2C(=O)O)c2oc(N3CCC(C)(C)CC3)cc(=O)c2c1 (centres unmarked) [Example 11, 3-Chloro-2-[1-[2-(4,4-dimethyl-1-piperidyl)-6-methyl-4-oxo-chromen-8-yl]ethylamino]benzoic acid]	> 10000	> 10000
Cc1cc(C(C)N(C)c2ccccc2C(=O)O)c2oc(N3CCC(C)(C)CC3)cc(=O)c2c1 (centres unmarked) [Example 5, 2-[1-[2-(4,4-Dimethyl-1-piperidyl)-6-methyl-4-oxo-chromen-8-yl]ethyl-methyl-amino]benzoic acid]	> 10000	> 10000
Cc1cc([C@@H](C)Nc2ccccc2C(=O)O)c2oc(N3CC[C@H](c4ccccc4)C3)c(C)c(=O)c2c1 [Example 286, 2-[[(1R)-1-[3,6-dimethyl-4-oxo-2-[(3R)-3-phenylpyrrolidin-1-yl]chromen-8-yl]ethyl]amino]benzoic acid]	< 500	< 500
Cc1cc([C@@H](C)Nc2ccc(Cl)nc2C(=O)O)c2oc(N3CCC(C)(C)CC3)cc(=O)c2c1 [Example 256, 6-Chloro-3-[[(1R)-1-[2-(4,4-dimethyl-1-piperidyl)-6-methyl-4-oxo-chromen-8-yl]lethyl]amino]pyridine-2-carboxylic acid]	< 500	< 500
Cc1cc(C(C)Nc2ccc(C#N)cc2C(=O)O)c2oc(N3CCC(C)(C)CC3)cc(=O)c2c1 (centres unmarked) [Example 6, 5-Cyano-2-[1-[2-(4,4-dimethyl-1-piperidyl)-6-methyl-4-oxo-chromen-8-yl]ethylamino]benzoic acid]	< 500	> 10000
Cc1cc(C(C)Nc2ccccc2C(=O)O)c2oc(N3CC(Cl)C3)cc(=O)c2c1 (centres unmarked) [Example 63, 2-[1-[2-(3-Chloroazetidin-1-yl)-6-methyl-4-oxo-chromen-8-yl]ethylamino]benzoic acid]	< 500	> 10000
Cc1cc(C(C)Nc2cc3c(cc2C(=O)O)OCO3)c2oc(N3CCC(C)(C)CC3)cc(=O)c2c1 (centres unmarked) [Example 33, 6-[1-[2-(4,4-Dimethyl-1-piperidyl)-6-methyl-4-oxo-chromen-8-yl]ethylamino]-1,3-benzodioxole-5-carboxylic acid]	> 10000	> 10000
Cc1cc([C@@H](C)Nc2ccccc2C(=O)O)c2oc(N3CC(C)(c4ccccc4)C3)c(C)c(=O)c2c1 [Example 274, 2-[[(1R)-1-[3,6-Dimethyl-2-(3-methyl-3-phenyl-azetidin-1-yl)-4-oxo-chromen-8-yl]ethyl]amino]benzoic acid]	< 500	< 500
Cc1cc(C(C)Nc2ccccc2C(=O)O)c2oc(N3CCS(=O)(=O)CC3)cc(=O)c2c1 (centres unmarked) [Example 117, 2-[1-[2-(1,1-Dioxo-1,4-thiazinan-4-yl)-6-methyl-4-oxo-chromen-8-yl]ethylamino]benzoic acid]	–	> 10000
Cc1cc(C(C)Nc2ccccc2C(=O)O)c2oc(N3CCn4cnnc4C3)cc(=O)c2c1 (centres unmarked) [Example 163, 2-[1-[2-(6,8-Dihydro-5H-[1,2,4]triazolo[4,3-a]pyrazin-7-yl)-6-methyl-4-oxo-chromen-8-yl]ethylamino]benzoic acid]	–	> 10000
Cc1cc(C(C)Nc2ccccc2C(=O)O)c2oc(NCC(C)C)cc(=O)c2c1 (centres unmarked) [Example 77, 2-[1-[2-(Isobutylamino)-6-methyl-4-oxo-chromen-8-yl]ethylamino]benzoic acid]	< 500	> 10000
Cc1cc(C(C)Nc2ccc(Cl)nc2C(=O)O)c2oc(N3CCC4(CC3)CC4)cc(=O)c2c1 (centres unmarked) [Example 298, 3-[1-[2-(6-Azaspiro[2.5]octan-6-yl)-6-methyl-4-oxo-chromen-8-yl]ethylamino]-6-chloro-pyridine-2-carboxylic acid]	< 500	< 500
COc1cc(C(=O)O)c(NC(C)c2cc(C)cc3c(=O)cc(N4CCC(C)(C)CC4)oc23)cc1F (centres unmarked) [Example 1, 2-[1-[2-(4,4-Dimethyl-1-piperidyl)-6-methyl-4-oxo-chromen-8-yl]ethylamino]-4-fluoro-5-methoxy-benzoic acid]	–	> 10000
